Drawing on PubChem BioAssay (NCI), this text covers TGI and GI50 for 16 compounds.

Structures are written as SMILES.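 How tested: cells in 96-well plates exposed to compound for 48 hours at five concentrations. GI50 is the concentration that inhibits growth by half. The concentration for full growth arrest is given as TGI.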

Test systems include NCI-H460 lung; COLO 205 colon; M14 melanoma; M19-MEL melanoma; SK-OV-3 ovarian; NCI-H522 lung; SNB-19 CNS; A498 renal; DMS 273 small cell lung; DMS 114 small cell lung; MDA-MB-435.
Holding throughout (assay): NCI-60 cell line screen, 48 h

Take `O=C(C=Nc1ccccc1C(=O)[O-])c1cccs1.O=C(C=Nc1ccccc1C(=O)[O-])c1cccs1.[Ni+2]`: the TGI is above 100 µM in the experiment with NCI-H460 lung; above 100 µM with COLO 205 colon; above 100 µM in the experiment with M14 melanoma; above 100 µM in the experiment with M19-MEL melanoma; above 100 µM with SK-OV-3 ovarian; 55.3 µM in the experiment with NCI-H522 lung. Besides, the TGI in the experiment with SNB-19 CNS and in the experiment with A498 renal was above 100 µM throughout. The GI50 in the experiment on M19-MEL melanoma is 31.1 µM.

Consider `O=C(O)CN(c1ccccc1)S(=O)(=O)c1cccc([N+](=O)[O-])c1`, for which the TGI in the experiment on DMS 273 small cell lung, in the experiment on NCI-H460 lung, with COLO 205 colon, in the experiment with M14 melanoma, with M19-MEL melanoma and in the experiment on SK-OV-3 ovarian was above 100 µM throughout. Further, the TGI in the experiment on NCI-H522 lung, in the experiment on SNB-19 CNS and in the experiment on A498 renal was above 100 µM throughout.

Regarding `O=C(COc1ccccc1Cl)N1N=C(c2ccccc2)CC1(O)c1ccccc1` (centres undefined), the TGI with DMS 273 small cell lung was determined as 31.8 µM; in the experiment with NCI-H460 lung, 32 µM; in the experiment on COLO 205 colon, 33.9 µM; with M14 melanoma, 31.9 µM; in the experiment with M19-MEL melanoma, 41.6 µM; in the experiment with SK-OV-3 ovarian, 47.7 µM. Further, the figures for the TGI with NCI-H522 lung and with SNB-19 CNS were above 100 µM and 45.4 µM, respectively.

Take `CN1C(=O)CC2(C)c3cc(O)cc(Br)c3N(C)C12` (centres undefined): the TGI with NCI-H460 lung, with COLO 205 colon, in the experiment on DMS 114 small cell lung, in the experiment on M14 melanoma, with M19-MEL melanoma and in the experiment on SK-OV-3 ovarian was above 100 µM each time. Further, the TGI in the experiment on NCI-H522 lung, in the experiment on SNB-19 CNS and in the experiment on A498 renal was above 100 µM throughout.

For `CCc1ccccc1NC(=O)C(=O)C(C#N)c1ccccc1Cl` (centres undefined), the TGI is 33.1 µM in the experiment with NCI-H460 lung; above 100 µM with COLO 205 colon; above 100 µM in the experiment with DMS 114 small cell lung; above 100 µM with M14 melanoma; above 100 µM with M19-MEL melanoma; above 100 µM in the experiment on SNB-19 CNS. The compound also gave a TGI in the experiment with A498 renal above 100 µM.

`N#CCCN(CCC#N)c1ccc(/C=C(/NC(=O)c2cc([N+](=O)[O-])ccc2Cl)C(=O)NN)cc1`: the TGI in the experiment on DMS 273 small cell lung, in the experiment on NCI-H460 lung, in the experiment with COLO 205 colon, with M14 melanoma, with M19-MEL melanoma and in the experiment on SK-OV-3 ovarian was above 100 µM each time. Moreover, the TGI with NCI-H522 lung, in the experiment with SNB-19 CNS and with A498 renal was above 100 µM throughout.

Consider `[O-]/N=[N+](/[O-])C1CCCCC1=[N+]1CCOCC1` (centres undefined), for which the TGI with NCI-H460 lung, in the experiment with COLO 205 colon, in the experiment with DMS 114 small cell lung, in the experiment with M14 melanoma, in the experiment with M19-MEL melanoma and with SK-OV-3 ovarian was above 100 µM each time. For the same compound, the TGI with NCI-H522 lung, in the experiment with SNB-19 CNS and with A498 renal was above 100 µM throughout.

Regarding `CCN1CCC(CC(=O)Nc2n[nH]c3nnc(-c4cccc(F)c4F)cc23)CC1`, the GI50 is above 25 µM in the experiment on NCI-H460 lung; 22.3 µM with COLO 205 colon; above 25 µM in the experiment on MDA-MB-435; above 25 µM in the experiment with M14 melanoma; above 25 µM in the experiment on SK-OV-3 ovarian; above 25 µM with NCI-H522 lung. For the same compound, the figures for the GI50 in the experiment on SNB-19 CNS and in the experiment on A498 renal were above 25 µM and 2.84 µM, respectively. Besides, the TGI in the experiment with NCI-H460 lung, in the experiment with COLO 205 colon, in the experiment with MDA-MB-435, with M14 melanoma, in the experiment with SK-OV-3 ovarian and in the experiment with NCI-H522 lung was above 25 µM each time. Also, the TGI with SNB-19 CNS and in the experiment with A498 renal was above 25 µM in each case.

As to `COC1=CC(c2ccc[nH]2)=N/C1=C\c1[nH]c(C)c(C(=O)CCC(=O)Oc2ccc3c(c2)CCC2C3CC[C@]3(C)[C@@H](O)CC[C@@H]23)c1C` (some centres undefined), the GI50 is 3.07 µM in the experiment with NCI-H460 lung; 5.15 µM in the experiment with COLO 205 colon; 3.25 µM in the experiment on MDA-MB-435; 2.1 µM in the experiment on M14 melanoma; 5.56 µM in the experiment on SK-OV-3 ovarian; 1.99 µM with NCI-H522 lung. Besides, the GI50 in the experiment with SNB-19 CNS was 4.13 µM; in the experiment on A498 renal, 1.87 µM. Moreover, the TGI is above 100 µM with NCI-H460 lung; above 100 µM in the experiment on COLO 205 colon; above 100 µM in the experiment on MDA-MB-435; 4.6 µM in the experiment on M14 melanoma; above 100 µM with SK-OV-3 ovarian; 6.5 µM in the experiment on NCI-H522 lung. The TGI was 72.6 µM in the experiment on SNB-19 CNS and 8.82 µM in the experiment with A498 renal.

As for `C/C(CCC(=O)O)=N/Nc1ccc([N+](=O)[O-])cc1`, the GI50 is 3.12 µM in the experiment with NCI-H460 lung; 3.43 µM in the experiment with COLO 205 colon; 4.37 µM with MDA-MB-435; 1.53 µM with M14 melanoma; above 100 µM in the experiment on SK-OV-3 ovarian; 0.738 µM with NCI-H522 lung. Besides, the GI50 in the experiment on SNB-19 CNS and in the experiment on A498 renal was above 100 µM throughout. The TGI with NCI-H460 lung, with COLO 205 colon, with MDA-MB-435, in the experiment with M14 melanoma, with SK-OV-3 ovarian and in the experiment with NCI-H522 lung was above 100 µM in each case. The TGI with SNB-19 CNS and in the experiment on A498 renal was above 100 µM in each case.

Regarding `CC1(C)CC(=O)C=C(/C=C/Sc2c(Cl)c(Cl)nc(Cl)c2Cl)C1`, the GI50 is 11.8 µM in the experiment with NCI-H460 lung; 17.2 µM with COLO 205 colon; 2.88 µM in the experiment on MDA-MB-435; 11.7 µM in the experiment with M14 melanoma; 19.9 µM in the experiment on SK-OV-3 ovarian; 6.17 µM with NCI-H522 lung. Further, the GI50 in the experiment with SNB-19 CNS was 15.9 µM; in the experiment with A498 renal, 21.7 µM. Also, the TGI came out at 32.1 µM in the experiment with NCI-H460 lung; 31.3 µM with COLO 205 colon; 8.2 µM with MDA-MB-435; 24.2 µM in the experiment on M14 melanoma; 34.8 µM with SK-OV-3 ovarian; 37 µM with NCI-H522 lung. Further, the values for the TGI in the experiment with SNB-19 CNS and with A498 renal were 29.5 µM and 36.6 µM, respectively.

On to `O=C(CN1CCN(Cc2ccccc2Cl)CC1)NC1CC(=O)c2c(Br)sc(Br)c21` (centres undefined), for which the GI50 in the experiment with NCI-H460 lung was 18.3 µM; with COLO 205 colon, 21.2 µM; with MDA-MB-435 it was 21.5 µM; in the experiment on M14 melanoma, 17.2 µM; in the experiment with SK-OV-3 ovarian, 54.1 µM; with NCI-H522 lung, 2 µM. For the same compound, the GI50 in the experiment on SNB-19 CNS was 18.6 µM; in the experiment with A498 renal, 20.5 µM. Moreover, the TGI with NCI-H460 lung is 35.2 µM; with COLO 205 colon it was 38.4 µM; in the experiment with MDA-MB-435, 52.5 µM; in the experiment with M14 melanoma, 31.7 µM; in the experiment on SK-OV-3 ovarian, above 100 µM; in the experiment with NCI-H522 lung, 5.06 µM. Moreover, the TGI stood at 33.1 µM with SNB-19 CNS and 35.4 µM with A498 renal.

As for `Cc1ccccc1C1=C(c2cn(C)c3ccccc23)C(=O)NC1=O`, the GI50 was 14.3 µM with NCI-H460 lung; 9.01 µM in the experiment with COLO 205 colon; above 21.5 µM with MDA-MB-435; above 25 µM with M14 melanoma; above 25 µM in the experiment on SK-OV-3 ovarian; above 22.6 µM in the experiment on NCI-H522 lung. Further, the figures for the GI50 with SNB-19 CNS and with A498 renal were above 25 µM and 6.52 µM, respectively. In addition, the TGI in the experiment with NCI-H460 lung, in the experiment on COLO 205 colon, in the experiment with MDA-MB-435, in the experiment with M14 melanoma, with SK-OV-3 ovarian and with NCI-H522 lung was above 25 µM in each case. The TGI in the experiment on SNB-19 CNS was above 25 µM; in the experiment on A498 renal, 20.7 µM.

For the compound `O=C(c1ccccc1)C(Cl)C(Cl)c1ccccc1` (centres undefined), the GI50 with NCI-H460 lung is 6.66 µM; with COLO 205 colon it was 2.06 µM; in the experiment with MDA-MB-435 it was 2.26 µM; with M14 melanoma, 2.12 µM; with SK-OV-3 ovarian, 16.8 µM; in the experiment on NCI-H522 lung, 1.7 µM. The GI50 was 6.85 µM in the experiment with SNB-19 CNS and 13.6 µM in the experiment with A498 renal. For the same compound, the TGI came to 22.5 µM in the experiment with NCI-H460 lung; 4.26 µM in the experiment with COLO 205 colon; 5.56 µM in the experiment with MDA-MB-435; 4.79 µM in the experiment with M14 melanoma; 30.5 µM in the experiment on SK-OV-3 ovarian; 3.42 µM in the experiment with NCI-H522 lung. The TGI in the experiment on SNB-19 CNS worked out at 21.2 µM; with A498 renal, 27.1 µM.

For `CNC(=O)c1nn(C)c2c1C(C)(C)Cc1cnc(Nc3cccc(N4CCN(C)CC4)c3)nc1-2`, the GI50 was 0.303 µM with NCI-H460 lung; 0.239 µM with COLO 205 colon; 0.335 µM with MDA-MB-435; 0.204 µM in the experiment on M14 melanoma; 0.21 µM in the experiment on SK-OV-3 ovarian; 0.554 µM in the experiment on NCI-H522 lung. Further, the GI50 was 0.322 µM with SNB-19 CNS and 0.0254 µM with A498 renal. In addition, the TGI with NCI-H460 lung came to 11.8 µM; in the experiment with COLO 205 colon, 1.59 µM; with MDA-MB-435, 11.8 µM; in the experiment with M14 melanoma, 11.8 µM; in the experiment on SK-OV-3 ovarian it was 7.44 µM; in the experiment with NCI-H522 lung it was 11.1 µM. Moreover, the values for the TGI in the experiment on SNB-19 CNS and with A498 renal were 28.7 µM and 0.389 µM, respectively.

In the case of `CNS(=O)(=O)OCC1OC(n2cnc3cncnc32)C(O)C1O` (centres undefined), the GI50 in the experiment on NCI-H460 lung, in the experiment with COLO 205 colon, in the experiment on MDA-MB-435, with M14 melanoma, with SK-OV-3 ovarian and in the experiment on NCI-H522 lung was above 100 µM throughout. Also, the GI50 in the experiment on SNB-19 CNS and in the experiment with A498 renal was above 100 µM each time. The TGI in the experiment on NCI-H460 lung, with COLO 205 colon, with MDA-MB-435, in the experiment on M14 melanoma, with SK-OV-3 ovarian and with NCI-H522 lung was above 100 µM each time. Besides, the TGI with SNB-19 CNS and in the experiment with A498 renal was above 100 µM throughout.
